Experimental data as given in PubChem BioAssay (NCI).
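Cultured in 96-well plates, cells were exposed to test compound for 48 hours across five concentrations. Abbreviation: GI50, concentration required for 50% inhibition of growth. TGI: total growth inhibition.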

Experiments:
Test in all cases: DTP human tumour cell line panel, 48 h
A549 NSCLC = system: A549 NSCLC
M14 melanoma = system: M14 melanoma
MALME-3M melanoma = system: MALME-3M melanoma
MDA-MB-231 breast = system: MDA-MB-231 breast
NCI-H23 lung = system: NCI-H23 lung
OVCAR-5 ovarian = system: OVCAR-5 ovarian
U251 CNS = system: U251 CNS
UO-31 renal = system: UO-31 renal
SNB-75 CNS = system: SNB-75 CNS
HS 578T breast = system: HS 578T breast

SMILES	GI50 (A549 NSCLC)	TGI (A549 NSCLC)	GI50 (M14 melanoma)	TGI (M14 melanoma)	GI50 (MALME-3M melanoma)	TGI (MALME-3M melanoma)	GI50 (MDA-MB-231 breast)	TGI (MDA-MB-231 breast)	GI50 (NCI-H23 lung)	TGI (NCI-H23 lung)	GI50 (OVCAR-5 ovarian)	TGI (OVCAR-5 ovarian)	GI50 (U251 CNS)	TGI (U251 CNS)	GI50 (UO-31 renal)	TGI (UO-31 renal)	TGI (SNB-75 CNS)	GI50 (HS 578T breast)	TGI (HS 578T breast)	GI50 (SNB-75 CNS)
CCOC(=O)C1=C(C)N(N)C(=S)NC1c1ccc(C)cc1 (centres undefined)	94.6 µM	> 100 µM	27.5 µM	> 100 µM	14.4 µM	> 100 µM	1.2 µM	> 100 µM	63.9 µM	> 100 µM	15.7 µM	> 100 µM	24.1 µM	> 100 µM	23.5 µM	> 100 µM				
CCOC(=O)CCc1c(C)c2c(OC(C)=O)cc(OC(C)=O)cc2oc1=O		> 100 µM		> 100 µM		55.5 µM				> 100 µM		> 100 µM		> 100 µM		> 100 µM	> 100 µM			
Cc1cc(C)n(CCNCCn2nc(C)cc2C)n1		> 100 µM		> 100 µM						> 100 µM				> 100 µM		> 100 µM	> 100 µM			
CN=NN(C)C(=O)NC		> 100 µM		> 100 µM		> 100 µM				> 100 µM		> 100 µM		> 100 µM		> 100 µM	> 100 µM			
Cc1[nH][nH]c(=O)c1C=Nc1ccc(-c2nc3ccccc3[nH]2)cc1	42.9 µM	> 100 µM	30.6 µM	50.9 µM			12.8 µM	33.8 µM			46 µM	> 100 µM	19 µM	44.7 µM	31.8 µM	> 100 µM	40.5 µM	29 µM	63.9 µM	19.6 µM
COC(=O)/C=C/C1C(C(=O)OC)C2(C(=O)OC)CCC1(C(=O)OC)N2 (centres undefined)		> 100 µM		> 100 µM		> 100 µM				> 100 µM		> 100 µM		> 100 µM		> 100 µM	> 100 µM			
CCCCCCCCCc1cc(=O)c2c(O)cccc2o1		> 100 µM		> 100 µM		> 100 µM				> 100 µM		> 100 µM		> 100 µM		> 100 µM	> 10 µM			
COc1ccc(C2C(C#N)=C(N)OC3=C2COc2ccc(F)cc23)cc1OC (centres undefined)	27.2 µM	63.8 µM	40.1 µM	> 100 µM			14.3 µM	58.8 µM	13.1 µM	36.7 µM	23.7 µM	80.9 µM	17 µM	59.2 µM	43.9 µM	> 100 µM		35.6 µM	81.7 µM	
O=C(O)c1cccc(OCCO)c1		> 100 µM		> 100 µM		> 100 µM		> 100 µM		> 100 µM		> 100 µM		> 100 µM		> 100 µM			> 100 µM	
O=S(O)CCCCSSCc1ccccc1CSSCCCCS(=O)O		> 100 µM		26.7 µM		28.5 µM				61.8 µM		> 100 µM		> 100 µM		74.4 µM	> 100 µM			
O=C(CCCN1CC=C(n2c(=O)[nH]c3ccccc32)CC1)c1ccc(F)cc1	70.2 µM	> 100 µM	23 µM	65.5 µM	38.9 µM	> 100 µM	62.8 µM	> 100 µM	37.6 µM	> 100 µM	94.1 µM	> 100 µM			27.5 µM	> 100 µM		24 µM	99.8 µM	
N#CC(C#N)=c1[nH]c2cccc3c2-c2c(cccc2c3=C(C#N)C#N)[nH]1		> 100 µM		> 100 µM		> 100 µM				> 100 µM		> 100 µM		> 100 µM		> 100 µM	> 100 µM			
Cc1cn2c(/C=C3/C(=O)Nc4ccccc43)c(-c3ccc(Cl)cc3)nc2s1	7.52 µM	16 µM	8.39 µM	15.2 µM			2.34 µM	9.45 µM					5.31 µM	11.2 µM	35.9 µM	> 50 µM		9.26 µM	31.9 µM	
CC(=O)OCC1OC([S-])C(OC(C)=O)C(OC(C)=O)C1OC(C)=O.CC[PH+](CC)CC.CC[PH+](CC)CC.[Au].[Au] (centres undefined)	1.72 µM	4 µM	0.14 µM	0.322 µM	0.137 µM	0.32 µM			0.245 µM	1.07 µM	1.59 µM	2.96 µM	0.149 µM	0.306 µM	1.6 µM	2.98 µM	1.16 µM			0.249 µM
CSC1(CC(=O)N(C)C)C(=O)Nc2ccccc21 (centres undefined)		> 100 µM		> 100 µM		> 100 µM				> 100 µM		> 100 µM		> 100 µM		> 100 µM	> 100 µM		> 100 µM	
CCOC(=O)c1[nH]c(COC(C)=O)c(CCCOC(C)=O)c1CCCOC(C)=O		> 100 µM				> 100 µM				> 100 µM		> 100 µM		> 100 µM						
CCOC(=O)C1N(S(=O)(=O)c2ccc(C)cc2)CCC12C(c1ccc(OC)cc1)NC1CCCCC12 (centres undefined)		> 100 µM		> 100 µM		> 100 µM				> 100 µM		> 100 µM		> 100 µM		> 100 µM	77.8 µM			
CCOC(=O)[C@H](CCCNC(=O)OC(C)(C)C)NCc1ccc(OC)c(OC)c1		> 100 µM		> 100 µM		> 100 µM				> 100 µM		> 100 µM		> 100 µM		> 100 µM	> 100 µM			
O=C(CCC(=O)Nc1cccc(Cl)c1)CC(=O)c1ccc(Cl)cc1		> 100 µM		> 100 µM		> 100 µM				> 100 µM		> 100 µM				> 100 µM	> 100 µM			
O=c1[nH]c2cc(Cl)ccc2n1C1CCN(CCCC(c2ccc(F)cc2)c2ccc(F)cc2)CC1	1.65 µM	3.39 µM	1.55 µM	3.05 µM	1.88 µM	4.21 µM	1.68 µM	3.12 µM	1.74 µM	3.43 µM	1.74 µM	3.43 µM	1.54 µM	2.87 µM	1 µM	2.38 µM	2.73 µM			1.27 µM
NC1CCCC[C@H]1N.N[C@@H]1CCCC[C@@H]1N.O=C(P(=O)([O-])[O-])P(=O)([O-])[O-].[Pt+4].[Pt+4]	> 100 µM	> 100 µM	> 100 µM	> 100 µM	> 100 µM	> 100 µM			> 100 µM	> 100 µM	> 100 µM	> 100 µM	> 100 µM	> 100 µM	> 100 µM	> 100 µM	> 100 µM			> 100 µM
C#CC(=O)Nc1cccc(Nc2nc3c(c(NCc4ccccc4)n2)CCCC3)c1			0.261 µM	1.22 µM									0.0208 µM	0.0776 µM	< 0.01 µM	< 0.01 µM				
COC(COC(=O)N1CCN(C=O)CC1)C1=C(N2CC2)C(=O)C(C)=C(N2CC2)C1=O (centres undefined)		2.71 µM		1.34 µM		1.53 µM		8.16 µM		0.926 µM		8.64 µM		2.71 µM		3.19 µM			5.17 µM	
CC(C)(C)N1CC2(CCCCC2)C1=O		> 100 µM		> 100 µM		> 100 µM				> 100 µM		> 100 µM		> 100 µM		> 100 µM	> 100 µM			
O=C(/C=C/c1ccccc1)/C=C/c1ccccc1		> 100 µM		39.8 µM		57.7 µM				82.4 µM		> 100 µM		43.5 µM		> 100 µM	> 100 µM			
O=C(CSc1nnc(-c2ccccc2NC(=O)C(F)(F)F)c(=O)[nH]1)NC(=O)Nc1ccccc1		> 100 µM		> 100 µM		> 100 µM				> 100 µM		> 100 µM		> 100 µM		> 100 µM	45 µM			
Cc1ccc(N(CSc2ccc(Cl)cc2)CSc2ccc(Cl)cc2)cc1	0.448 µM	> 100 µM	1.48 µM	4.45 µM	3.65 µM	18.4 µM	0.404 µM	2.5 µM	2.27 µM	10.5 µM	1.74 µM	13 µM	0.581 µM	11.2 µM	0.717 µM	2.75 µM	8.7 µM			1.39 µM
CCCCCc1c(C)[nH]c(/C=C2\N=C(c3ccc[nH]3)C=C2CC)c1C	< 0.0125 µM	0.0846 µM	< 0.01 µM	0.0237 µM	0.0333 µM	0.187 µM	< 0.01 µM	0.0186 µM	< 0.0124 µM	0.135 µM	0.0179 µM	0.785 µM	< 0.01 µM	0.135 µM	0.0134 µM	0.0357 µM		0.014 µM	0.129 µM	
N#CC(/C(=N/NC(=O)C(=O)NN)C(=O)NC12CC3CC(CC(C3)C1)C2)c1ccccc1 (centres undefined)		> 100 µM		> 100 µM		> 100 µM				> 100 µM		> 100 µM		> 100 µM		> 100 µM	> 100 µM			
